Where two headings read alike, the source gives them in different places.
Key:
[1] = target: T1, PI3Kα (Homo sapiens, UniProt P42336); assay: PI3Kα activity inhibition (Kinase-Glo); type: biochemical
T1 construct: purchased Invitrogen PV4788
Method in brief: (§1)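 Kinase-Glo luminescence read-out of remaining ATP after PI3K reaction with PIP2 and ATP substrates in 50 mM HEPES pH 7.5, 3 mM MgCl2, 1 mM EGTA, 100 mM NaCl, 0.03% CHAPS, 2 mM DTT. Incubated at ambient temperature, 1 h for PI3Kα, 2 h for PI3Kδ. IC50 from four-parameter fit of % inhibition versus concentration.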

[2] = target: T2, PI3Kβ (Homo sapiens, UniProt P42338); assay: PI3Kβ activity inhibition (ADP-Glo); type: biochemical
T2 construct: purchased Millipore 14-603-K
T2 sequence (P42338 whole entry, species assumed): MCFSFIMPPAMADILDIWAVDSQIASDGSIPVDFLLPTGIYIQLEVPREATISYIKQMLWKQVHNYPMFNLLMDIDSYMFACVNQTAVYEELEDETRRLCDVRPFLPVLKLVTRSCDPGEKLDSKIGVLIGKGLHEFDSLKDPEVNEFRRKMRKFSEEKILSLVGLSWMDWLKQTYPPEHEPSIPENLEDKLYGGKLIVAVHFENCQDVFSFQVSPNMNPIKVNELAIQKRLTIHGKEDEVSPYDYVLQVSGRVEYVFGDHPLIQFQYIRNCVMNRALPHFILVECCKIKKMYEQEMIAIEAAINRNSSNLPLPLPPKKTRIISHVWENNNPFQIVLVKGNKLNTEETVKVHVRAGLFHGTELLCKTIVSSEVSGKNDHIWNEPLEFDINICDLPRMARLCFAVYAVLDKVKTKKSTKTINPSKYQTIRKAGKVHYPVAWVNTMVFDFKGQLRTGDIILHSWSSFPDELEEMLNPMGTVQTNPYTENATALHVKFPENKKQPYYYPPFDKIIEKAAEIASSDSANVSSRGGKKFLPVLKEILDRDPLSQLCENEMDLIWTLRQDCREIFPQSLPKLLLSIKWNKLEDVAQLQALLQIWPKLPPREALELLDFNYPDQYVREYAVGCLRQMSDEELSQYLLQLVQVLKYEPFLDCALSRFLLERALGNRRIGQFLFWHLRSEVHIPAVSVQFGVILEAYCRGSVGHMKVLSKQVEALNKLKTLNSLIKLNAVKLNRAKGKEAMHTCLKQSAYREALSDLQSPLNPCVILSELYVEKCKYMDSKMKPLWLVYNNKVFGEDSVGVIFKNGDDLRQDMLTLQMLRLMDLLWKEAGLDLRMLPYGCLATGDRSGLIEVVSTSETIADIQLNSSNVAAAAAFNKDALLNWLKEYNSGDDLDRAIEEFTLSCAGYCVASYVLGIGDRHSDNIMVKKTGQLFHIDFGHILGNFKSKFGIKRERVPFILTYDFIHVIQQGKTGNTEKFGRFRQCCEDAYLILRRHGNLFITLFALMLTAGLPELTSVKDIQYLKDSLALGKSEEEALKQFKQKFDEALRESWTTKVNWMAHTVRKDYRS
T2 sequence (P27986 whole entry partner, species assumed): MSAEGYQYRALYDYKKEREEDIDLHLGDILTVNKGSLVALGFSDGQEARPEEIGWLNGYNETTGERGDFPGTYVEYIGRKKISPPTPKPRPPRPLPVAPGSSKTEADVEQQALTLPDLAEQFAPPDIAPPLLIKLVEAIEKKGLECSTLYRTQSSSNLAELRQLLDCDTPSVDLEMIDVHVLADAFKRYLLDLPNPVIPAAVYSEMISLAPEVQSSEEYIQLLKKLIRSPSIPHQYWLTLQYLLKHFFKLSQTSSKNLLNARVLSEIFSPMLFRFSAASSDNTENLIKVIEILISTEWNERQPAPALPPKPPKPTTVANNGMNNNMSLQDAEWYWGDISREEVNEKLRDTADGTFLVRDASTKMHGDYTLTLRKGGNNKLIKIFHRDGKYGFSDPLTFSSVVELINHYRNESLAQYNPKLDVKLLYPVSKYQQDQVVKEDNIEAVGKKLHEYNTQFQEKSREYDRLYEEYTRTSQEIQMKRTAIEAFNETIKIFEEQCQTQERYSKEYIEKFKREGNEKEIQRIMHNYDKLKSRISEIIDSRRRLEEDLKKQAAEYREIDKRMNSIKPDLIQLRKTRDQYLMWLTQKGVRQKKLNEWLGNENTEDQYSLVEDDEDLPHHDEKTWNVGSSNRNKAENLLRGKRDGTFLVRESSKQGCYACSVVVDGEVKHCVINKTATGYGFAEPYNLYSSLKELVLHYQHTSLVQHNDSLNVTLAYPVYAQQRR
Method in brief: (§2)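 Kinase activity measured by ADP-Glo luminescence with PIP2 and ATP substrates in 50 mM HEPES pH 7.5, 3 mM MgCl2, 1 mM EGTA, 100 mM NaCl, 0.03% CHAPS, 2 mM DTT. Reaction ran 1 h at ambient temperature. IC50 was fitted from inhibition ratio versus compound concentration.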

[3] = target: T3, PI3Kδ (Homo sapiens, UniProt O00329); assay: PI3Kδ activity inhibition (Kinase-Glo); type: biochemical
T3 construct: purchased Millipore 14-604-K
T3 sequence (O00329 whole entry): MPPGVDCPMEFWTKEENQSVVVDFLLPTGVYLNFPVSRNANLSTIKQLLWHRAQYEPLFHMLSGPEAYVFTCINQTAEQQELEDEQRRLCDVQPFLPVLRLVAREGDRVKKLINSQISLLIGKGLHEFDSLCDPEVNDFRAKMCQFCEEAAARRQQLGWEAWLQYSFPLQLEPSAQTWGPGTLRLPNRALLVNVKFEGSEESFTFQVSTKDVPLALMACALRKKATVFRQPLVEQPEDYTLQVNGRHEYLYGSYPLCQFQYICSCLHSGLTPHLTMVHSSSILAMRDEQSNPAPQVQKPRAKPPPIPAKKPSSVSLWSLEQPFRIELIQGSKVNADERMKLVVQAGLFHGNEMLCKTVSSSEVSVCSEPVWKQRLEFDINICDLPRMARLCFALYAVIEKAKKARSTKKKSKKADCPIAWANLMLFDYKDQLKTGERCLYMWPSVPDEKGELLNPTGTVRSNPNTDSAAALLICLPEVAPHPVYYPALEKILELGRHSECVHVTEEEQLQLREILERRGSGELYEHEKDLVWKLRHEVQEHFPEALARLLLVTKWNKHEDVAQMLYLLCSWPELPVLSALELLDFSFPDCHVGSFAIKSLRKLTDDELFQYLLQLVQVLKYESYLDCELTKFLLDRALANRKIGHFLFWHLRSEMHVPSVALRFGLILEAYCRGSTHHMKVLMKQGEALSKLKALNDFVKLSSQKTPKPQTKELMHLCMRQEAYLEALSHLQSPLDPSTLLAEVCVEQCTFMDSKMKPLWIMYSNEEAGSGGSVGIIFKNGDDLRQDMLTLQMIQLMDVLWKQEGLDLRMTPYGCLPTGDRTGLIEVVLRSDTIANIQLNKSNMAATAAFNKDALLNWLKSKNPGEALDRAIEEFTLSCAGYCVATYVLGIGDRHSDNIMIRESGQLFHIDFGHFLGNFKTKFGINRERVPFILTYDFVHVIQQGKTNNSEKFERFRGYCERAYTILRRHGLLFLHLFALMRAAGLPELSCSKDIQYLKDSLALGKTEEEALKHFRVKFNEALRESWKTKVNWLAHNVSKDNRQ
T3 sequence (P27986 whole entry partner): as the sequence (P27986 whole entry partner, species assumed) above
Method in brief: as §1

[4] = target: T4, PI3Kγ (Homo sapiens, UniProt P48736); assay: PI3Kγ activity inhibition (ADP-Glo); type: biochemical
T4 construct: purchased Invitrogen PR8641C
T4 sequence (P48736 whole entry): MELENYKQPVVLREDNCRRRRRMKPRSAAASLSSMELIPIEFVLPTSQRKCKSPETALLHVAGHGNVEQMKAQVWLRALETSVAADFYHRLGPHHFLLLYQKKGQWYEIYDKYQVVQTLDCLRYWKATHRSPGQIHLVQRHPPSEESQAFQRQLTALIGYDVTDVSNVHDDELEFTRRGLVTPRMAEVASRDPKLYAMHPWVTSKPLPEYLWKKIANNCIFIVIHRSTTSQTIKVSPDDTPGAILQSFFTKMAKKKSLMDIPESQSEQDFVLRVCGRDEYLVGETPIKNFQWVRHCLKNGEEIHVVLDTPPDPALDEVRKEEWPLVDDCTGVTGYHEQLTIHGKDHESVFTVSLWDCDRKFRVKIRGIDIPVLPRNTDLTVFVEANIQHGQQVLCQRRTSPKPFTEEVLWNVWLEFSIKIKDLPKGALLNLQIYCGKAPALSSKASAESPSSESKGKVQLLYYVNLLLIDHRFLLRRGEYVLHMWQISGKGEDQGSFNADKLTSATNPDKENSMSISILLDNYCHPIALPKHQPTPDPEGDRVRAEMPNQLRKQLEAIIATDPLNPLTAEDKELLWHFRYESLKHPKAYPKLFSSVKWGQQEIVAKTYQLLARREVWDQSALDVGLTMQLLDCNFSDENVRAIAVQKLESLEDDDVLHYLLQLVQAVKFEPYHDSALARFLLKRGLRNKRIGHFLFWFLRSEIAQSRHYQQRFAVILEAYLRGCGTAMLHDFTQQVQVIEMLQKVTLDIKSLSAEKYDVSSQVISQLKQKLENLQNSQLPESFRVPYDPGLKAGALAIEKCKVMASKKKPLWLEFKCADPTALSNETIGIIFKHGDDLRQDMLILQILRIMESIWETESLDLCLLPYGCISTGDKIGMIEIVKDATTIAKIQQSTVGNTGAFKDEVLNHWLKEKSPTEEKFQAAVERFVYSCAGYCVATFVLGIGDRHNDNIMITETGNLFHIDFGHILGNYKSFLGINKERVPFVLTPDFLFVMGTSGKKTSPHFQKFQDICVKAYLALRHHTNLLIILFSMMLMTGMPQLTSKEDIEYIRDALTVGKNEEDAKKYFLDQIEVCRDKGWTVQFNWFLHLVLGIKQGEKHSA
Method in brief: as §2

[5] = system: MV4-11 cells (acute myeloid leukemia); assay: Cell proliferation inhibition, MV4-11 (cck-8); type: cell-based; settings: Homo sapiens
Method in brief: (§3)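 Cells seeded at 2000-3000/well; adherent lines dosed after attachment, then 96 h incubation with compound. Viability read by MTT for solid-tumour lines (HCT116, A2780s) and CCK-8 for MV4-11; IC50 from four-parameter logistic fit of inhibition ratio versus concentration.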

[6] = system: hct116 cells (colon cancer); assay: Cell proliferation inhibition, hct116 (MTT); type: cell-based; settings: Homo sapiens, HCT-116
Method in brief: as §3

[7] = system: human breast cancer MDA-MB-231 subcutaneous tumor; assay: Subcutaneous tumor model, human breast cancer MDA-MB-231; settings: once per 2 days
Description: (§4) Cell MM1S is cultured in RPMI1640 medium (HyClone) which contains 10% fetal calf serum (Hohhot Caoyuan Lvye Bioengineering Material Co., Ltd.) and 100 U/mL penicillin and streptomycin (Beyotime).
(§5) 3) Inoculation, grouping and treatment: collecting cells in logarithmic phase under aseptic conditions and counting; diluting the single cell suspension with the medium containing neither fetal calf serum nor antibiotics to 1×10^7-8 cell/mL for standby. Mixing the cell suspension; injecting 100 μL of cell suspension (5×10^6-2×10^7 cells) subcutaneously with a 1 mL injector on the right side of the back of animals. Weeding out the animals with oversized and undersized tumor when the tumor grows to an average volume of about 120 mm^3 and grouping the qualified animals for treatment and drug administration. Refer to Table 7 for each grouping model and drug administration frequency. Measuring the weight of each model per 2 days and measuring the length and width of the tumor with a vernier caliper; killing the tested animals through cervical dislocation and peeling off their tumors for weight measuring and photographing. Then calculating the tumor inhibition ratio (%) and evaluating the inhibition intensity to tumor with such tumor inhibition ratio.

[8] = system: human multiple myeloma MM1S subcutaneous tumor; assay: Subcutaneous tumor model, human multiple myeloma MM1S; settings: once per 2 days
Description: as §4, §5

[9] = system: human breast cancer MCF-7 subcutaneous tumor; assay: Subcutaneous tumor model, human breast cancer MCF-7; settings: once per 2 days
[10] = system: human B-cell lymphoma Raji subcutaneous tumor; assay: Subcutaneous tumor model, human B-cell lymphoma Raji; settings: once per 2 days, intraperitoneal
[11] = Table 4, graded, read-out: PI3Kα IC50
[12] = 96 h incubation, read-out: Proliferation IC50, Acute myeloid leukemia MV4-11
[13] = 96 h incubation, read-out: Proliferation IC50, Colon cancer hct116
[14] = Table 1, graded, read-out: PI3Kα IC50

T1 sequence (P42336 whole entry, species assumed): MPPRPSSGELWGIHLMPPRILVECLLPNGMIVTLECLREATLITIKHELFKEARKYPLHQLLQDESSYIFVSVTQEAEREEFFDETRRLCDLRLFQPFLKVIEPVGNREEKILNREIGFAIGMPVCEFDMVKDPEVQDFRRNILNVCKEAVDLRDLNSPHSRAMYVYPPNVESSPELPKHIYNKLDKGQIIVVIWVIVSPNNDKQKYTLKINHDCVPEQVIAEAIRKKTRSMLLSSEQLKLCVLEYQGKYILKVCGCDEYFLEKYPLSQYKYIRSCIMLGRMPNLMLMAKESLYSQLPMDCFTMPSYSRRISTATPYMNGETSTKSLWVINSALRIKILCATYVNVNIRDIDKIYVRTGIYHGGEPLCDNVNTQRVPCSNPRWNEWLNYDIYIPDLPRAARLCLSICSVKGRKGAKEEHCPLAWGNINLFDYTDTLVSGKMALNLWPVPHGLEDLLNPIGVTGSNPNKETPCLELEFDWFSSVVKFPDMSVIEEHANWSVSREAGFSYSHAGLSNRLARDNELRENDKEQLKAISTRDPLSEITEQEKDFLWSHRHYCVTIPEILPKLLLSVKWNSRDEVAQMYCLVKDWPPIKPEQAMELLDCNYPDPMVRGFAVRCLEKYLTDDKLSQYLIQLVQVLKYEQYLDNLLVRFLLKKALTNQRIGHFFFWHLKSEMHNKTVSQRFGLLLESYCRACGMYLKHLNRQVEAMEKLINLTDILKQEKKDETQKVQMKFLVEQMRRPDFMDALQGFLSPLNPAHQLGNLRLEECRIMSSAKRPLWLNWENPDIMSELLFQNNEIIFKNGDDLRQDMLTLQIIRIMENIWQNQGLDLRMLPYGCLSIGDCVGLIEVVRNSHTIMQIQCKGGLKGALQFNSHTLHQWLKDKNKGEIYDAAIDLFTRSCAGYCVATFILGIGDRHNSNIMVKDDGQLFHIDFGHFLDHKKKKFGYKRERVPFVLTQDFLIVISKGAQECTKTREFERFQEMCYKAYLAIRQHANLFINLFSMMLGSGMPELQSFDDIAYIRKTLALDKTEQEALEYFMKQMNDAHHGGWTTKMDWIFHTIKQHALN
T1 sequence (P27986 whole entry partner, species assumed): as the sequence (P27986 whole entry partner, species assumed) above

Cc1[nH]c2ccccc2c1CCNCc1ccc(/C=C/C(=O)NO)cc1 [LBH589, panobinostat, reference compound]
IC50 [1, 11]: > 10000 nM | IC50 ([2]; Table 4, graded): > 10000 nM | IC50 ([3]; Table 4, graded): > 10000 nM | IC50 ([4]; Table 4, graded): > 10000 nM | IC50 [5, 12]: 0.1 to 10 nM | IC50 [6, 13]: 0.1 to 10 nM | Death ([7]; 10 mg/kg, intraperitoneal): 0/6 | Inhibitory rate (%) ([7]; 10 mg/kg, intraperitoneal): 77.95% | Death ([8]; 10 mg/kg, intraperitoneal): 0/7 | Inhibitory rate (%) ([8]; 10 mg/kg, intraperitoneal): 47.33% | Death ([9]; 10 mg/kg, intraperitoneal): 0/6 | Inhibitory rate (%) ([9]; 10 mg/kg, intraperitoneal): 75.69% | Death ([10]; 10 mg/kg): 0/6 | Inhibitory rate (%) ([10]; 10 mg/kg): 54.93%

COc1ccc(-c2nc(N3CCOCC3)c3nc(CN(C)c4ncc(C(=O)NO)cn4)n(C)c3n2)cn1 [CLJ-1, 2-(((2-(6-methoxypyridine-3-yl)-9-methyl-6-morpholine-9H-purine-8-yl))methyl(methyl)amino)-N-hydroxyl pyrimidine-5-formamide]
IC50 [1, 14]: 1000 to 10000 nM | IC50 [1, 11]: 1000 to 10000 nM | IC50 ([2]; Table 1, graded): 1000 to 10000 nM | IC50 ([2]; Table 4, graded): 1000 to 10000 nM | IC50 ([3]; Table 1, graded): 100 to 1000 nM | IC50 ([3]; Table 4, graded): 100 to 1000 nM | IC50 ([4]; Table 1, graded): 100 to 1000 nM | IC50 ([4]; Table 4, graded): 100 to 1000 nM | IC50 [5, 12]: 0.1 to 10 nM | IC50 [6, 13]: 10 to 100 nM

CN(Cc1nc2c(N3CCOCC3)nc(-c3cnc(N)nc3)nc2n1C)c1ncc(C(=O)NO)cn1 [CLJ-11, 2-(((2-(2-aminopyrimidine-5-yl)-9-methyl-6-morpholine-9H-purine-8-yl))methyl(methyl)amino)-N-hydroxyl pyrimidine-5-formamide]
IC50 [1, 14]: < 100 nM | IC50 [1, 11]: 1 to 100 nM | IC50 ([1]; read-out: inhibition value IC50 to the activity of PI3Kα): < 100 nM | IC50 ([2]; Table 1, graded): 100 to 1000 nM | IC50 ([2]; Table 4, graded): 1 to 100 nM | IC50 ([3]; Table 1, graded): 100 to 1000 nM | IC50 ([3]; Table 4, graded): 1 to 100 nM | IC50 ([4]; Table 1, graded): 100 to 1000 nM | IC50 ([4]; Table 4, graded): 1 to 100 nM | IC50 [5, 12]: 0.1 to 10 nM | IC50 [6, 13]: 10 to 100 nM

CN(Cc1nc2c(N3CCOCC3)nc(-c3ccc(N)cc3)nc2n1C)c1ncc(C(=O)NO)cn1 [CLJ-44]
IC50 [1, 14]: 1000 to 10000 nM | IC50 [1, 11]: 1000 to 10000 nM | IC50 ([2]; Table 4, graded): > 10000 nM | IC50 ([3]; Table 4, graded): > 10000 nM | IC50 ([4]; Table 4, graded): > 10000 nM | IC50 [5, 12]: 0.1 to 10 nM | IC50 [6, 13]: 10 to 100 nM | Death ([7]; 2.5 mg/kg, intravenous): 0/6 | Inhibitory rate (%) ([7]; 2.5 mg/kg, intravenous): 72.1% | Death ([7]; 5 mg/kg, intravenous): 0/6 | Inhibitory rate (%) ([7]; 5 mg/kg, intravenous): 83.9% | Death ([7]; 10 mg/kg, intravenous): 0/6 | Inhibitory rate (%) ([7]; 10 mg/kg, intravenous): 86.9% | Death ([8]; 2.5 mg/kg, intravenous): 0/7 | Inhibitory rate (%) ([8]; 2.5 mg/kg, intravenous): 45.09% | Death ([8]; 5 mg/kg, intravenous): 0/7 | Inhibitory rate (%) ([8]; 5 mg/kg, intravenous): 69.65% | Death ([8]; 10 mg/kg, intravenous): 0/7 | Inhibitory rate (%) ([8]; 10 mg/kg, intravenous): 71.94% | Death ([9]; 2.5 mg/kg, intravenous): 0/6 | Inhibitory rate (%) ([9]; 2.5 mg/kg, intravenous): 69.58% | Death ([9]; 5 mg/kg, intravenous): 0/6 | Inhibitory rate (%) ([9]; 5 mg/kg, intravenous): 77.58% | Death ([9]; 10 mg/kg, intravenous): 0/6 | Inhibitory rate (%) ([9]; 10 mg/kg, intravenous): 82.24% | Death ([10]; 5 mg/kg): 0/6 | Inhibitory rate (%) ([10]; 5 mg/kg): 76.96% | Death ([10]; 10 mg/kg): 0/6 | Inhibitory rate (%) ([10]; 10 mg/kg): 97.34% | Death ([10]; 20 mg/kg): 0/6 | Inhibitory rate (%) ([10]; 20 mg/kg): 99.29%

COc1ccc(-c2nc(N3CCOCC3)c3nc(CN(C)c4ncc(C(=O)NO)cn4)n(C)c3n2)cc1 [CLJ-29, 2-(((2-(4-methoxyphenyl)-9-methyl-6-morpholine-9H-purine-8-yl))methyl(methyl)amino)-N-hydroxyl pyrimidine-5-formamide]
IC50 [1, 14]: > 10000 nM | IC50 [1, 11]: > 10000 nM | IC50 ([2]; Table 4, graded): > 10000 nM | IC50 ([3]; Table 4, graded): > 10000 nM | IC50 ([4]; Table 4, graded): > 10000 nM | IC50 [5, 12]: 0.1 to 10 nM | IC50 ([5]; read-out: IC50 to proliferation of MV4-11 cells): 0.1 to 10 nM | IC50 [6, 13]: 0.1 to 10 nM | IC50 ([6]; read-out: IC50 to proliferation of hct116 cells): 0.1 to 10 nM
